Key:
[1] = Energy balance (carcass energy content, energy intake, energy expenditure) of treated male Wistar rats; format: in vivo; settings: 10-day treatment; for changes in energy expenditure versus control group (in words): estimated as energy intake minus accrual; for loss of body energy: oleoyl-estrone 10 micromol/kg daily gavage, CL-316243 1 mg/kg daily s.c. infusion; for decrease in food consumption: versus control group
Text: (§1) Forty-five day-old male Wistar rats were used. The rats were kept in collective cages in a light cycle, temperature, and humidity-controlled environment. They were fed tap water and a self-selected cafeteria diet (containing an excess of tasty, energy-dense foods, as well as standard chow) for 45 additional days. Then they were subjected to a 5-day diet adaptation period, in which they had rat chow as the sole food available. At this point, the rats weighed 350-370 g and had significant amounts of body fat. Maintaining the availability of rat chow (daily consumption by the group was recorded) and tap water, body weight was recorded daily. The animals were given a daily gavage of either 0.2 mL of sunflower oil or the same vehicle containing oleoyl-estrone to a daily dose of 10 micromol/kg of body weight.
(§2) This standard feeding and drug administration schedule was complemented by treating one half of the animals receiving only oil and one half of the animals receiving oil and oleoyl-estrone with a daily dose of 1 mg/kg of CL-316243, a beta-3 adrenergic agonist. This drug was continuously administered by means of subcutaneous infusion using Alzet osmotic minipumps (model 2002; 0.5 microliter/h) loaded with drug dissolved in saline. The minipumps were inserted subcutaneously in the dorsal lumbar area of the experimental animals by means of a short cut in the skin. The pumps were tested before their implantation, and the fluid remaining in the minipumps was later measured in order to check the effectiveness of the infusion.
(§3) The treatment was maintained up to 10 days, when the animals were killed by decapitation, and their blood and carcass were used for analyses.
(§4) Samples of the rat paste were dried and used for the estimation of their caloric content using a bomb calorimeter. The initial values for lipid content were calculated from the corresponding in vivo body weights at the beginning of the experiment and applying to all the animals the mean percentage of lipid content found in the control (vehicle only) group at the end of the experiment. This same procedure was used to determine the overall energy content of the carcasses by using the experimentally found energy content of the rats in the control group. Likewise, the energy content of the pellet diet was also measured and used to estimate the energy intake of the animals.
Energy expenditure (Ee) was estimated as the difference between energy intake (Ei) and accrual (Ea), since: Ei=Ee±Ea.

[2] = Body weight and lipid changes of overweight male Wistar rats in the 10-day period of treatment; format: in vivo; settings: 10-day treatment; oleoyl-estrone 10 micromol/kg daily gavage; CL-316243 1 mg/kg daily s.c. infusion
Text: as §1, §2, §3
The rat corpses, partially exsanguinated were dissected. The stomach and intestines were cleaned of their contents. The remaining carcass was sealed into polyethylene bags, autoclaved and blended to a fine paste. This paste was analyzed for lipid content by extraction using trichloromethane/methanol and corrected by its water content. Lipid content in the paste was referred to whole in vivo body weight for comparison.
as §4

C[C@H](Cc1ccc2c(c1)OC(C(=O)[O-])(C(=O)[O-])O2)NC[C@H](O)c1cccc(Cl)c1.[Na+].[Na+] [beta-3 agonist]
contribution of internal reserves to fuel the energy expenditure [1]: 28%
changes in energy expenditure versus control group (in words) [1]: higher than that of the control group by more than one-third
loss of body energy [1]: 821 kJ
increase in energy expenditure ([1]; rats treated with the beta-3 agonist, alone or with oleoyl-estrone): 136%
decrease in food consumption [1]: did not show a significant loss of appetite
loss of body weight [2]: less than 3%
loss of lipid (lipid stores) [2]: 42%

CCCCCCCC/C=C\CCCCCCCC(=O)Oc1ccc2c(c1)CC[C@@H]1[C@@H]2CC[C@]2(C)C(=O)CC[C@@H]12 [oleoyl-estrone, [3(Z)]-3-[(1-oxo-9-octadecenyl)oxy]-estra-1,3,5(10)-trien-17-one]
contribution of internal reserves to fuel the energy expenditure [1]: 19%
changes in energy expenditure versus control group (in words) [1]: slight decrease
loss of body energy [1]: 354 kJ
decrease in food consumption [1]: 32%
loss of body weight [2]: about 8%
loss of lipid (lipid stores) [2]: 13%

From patent publication US20070049569A1, “Methods of using fatty-acid esters of estrogens and thermogenic compounds for reducing the body weight of a mammal and compositions containing the same” (Oleoyl-Estrone Developments SL, priority 2004, published 2007)
